According to the NIST ThermoML archive (doi:10.1016/j.jct.2008.04.013):
“And” between values parts separate entries of the source, which are not always exact repeats. Equal entries are not always repeated.

Conditions: Liquid, Calculated from knudsen effusion weight loss

Cc1ccsc1C(=O)O [3-methyl-2-thiophenecarboxylic acid]
Conditions	vapor or sublimation pressure
312.13 K	0.000104 kPa and 0.000102 kPa
314.2 K	0.000129 kPa and 0.00013 kPa and 0.000126 kPa
316.22 K	0.000164 kPa and 0.000162 kPa and 0.000159 kPa
318.13 K	0.000205 kPa and 0.000204 kPa and 0.000209 kPa
320.19 K	0.000264 kPa and 0.000261 kPa and 0.000254 kPa
322.21 K	0.000323 kPa and 0.00032 kPa and 0.000314 kPa
324.14 K	0.000412 kPa and 0.000407 kPa and 0.000418 kPa
326.18 K	0.000507 kPa and 0.000503 kPa
328.21 K	0.000636 kPa and 0.00063 kPa
330.15 K	0.000798 kPa and 0.000786 kPa and 0.000769 kPa
332.23 K	0.000984 kPa and 0.000972 kPa and 0.00094 kPa
334.2 K	0.001191 kPa and 0.001174 kPa and 0.001146 kPa

CC(=O)c1ccc(C(=O)O)s1 [5-acetyl-2-thiophenecarboxylic acid]
Conditions	vapor or sublimation pressure
364.15 K	0.00011 kPa and 0.000108 kPa and 0.000105 kPa
366.18 K	0.000133 kPa and 0.000135 kPa and 0.000129 kPa
368.18 K	0.000163 kPa and 0.00016 kPa
370.15 K	0.000205 kPa and 0.0002 kPa and 0.000208 kPa
372.17 K	0.000252 kPa and 0.00025 kPa and 0.000244 kPa
374.17 K	0.000303 kPa and 0.000307 kPa and 0.000298 kPa
376.15 K	0.000392 kPa and 0.000387 kPa and 0.000376 kPa
378.17 K	0.000471 kPa and 0.000472 kPa and 0.000451 kPa
380.18 K	0.000578 kPa and 0.000568 kPa and 0.000548 kPa
382.18 K	0.000707 kPa and 0.000698 kPa and 0.000683 kPa
384.18 K	0.000819 kPa and 0.000846 kPa and 0.000816 kPa
386.17 K	0.001019 kPa and 0.001018 kPa and 0.000988 kPa

Cc1ccc(C(=O)O)s1 [5-methyl-2-thiophenecarboxylic acid]
Conditions	vapor or sublimation pressure
316.29 K	9e-05 kPa and 8.8e-05 kPa and 8.9e-05 kPa
318.25 K	0.000113 kPa and 0.000112 kPa and 0.00011 kPa
320.12 K	0.000139 kPa
322.28 K	0.00018 kPa and 0.000183 kPa
324.24 K	0.000229 kPa and 0.000226 kPa and 0.000222 kPa
326.12 K	0.000273 kPa and 0.000278 kPa and 0.000276 kPa
328.28 K	0.000341 kPa and 0.000356 kPa and 0.000355 kPa
330.22 K	0.000441 kPa and 0.000439 kPa and 0.000427 kPa
332.11 K	0.00054 kPa and 0.000539 kPa
334.28 K	0.0007 kPa and 0.000697 kPa and 0.00069 kPa
336.22 K	0.000859 kPa and 0.000855 kPa and 0.000843 kPa
338.11 K	0.001049 kPa and 0.001053 kPa and 0.001028 kPa
